Laboratory results published in publication PMC2724550, “Citrus auraptene suppresses cyclin D1 and significantly delays N-methyl nitrosourea induced mammary carcinogenesis in female Sprague-Dawley rats” (BMC Cancer, 2009).

Legend:
MCF-7 cells = test: MCF-7 cell proliferation assay with IGF-1 (MTS); assay type: cell-based, human; settings: IGF-1 10 ng/mL, 24 hrs
Method: The human breast carcinoma cell line MCF-7 was obtained from ATCC (Manassas, VA) and grown in a sterile humidified environment at 37°C and 5% CO2: 95% air with complete DMEM media. The MCF-7 cells were plated in a 96 well plate at 30,000 cells/well at a confluency of 40%. The cells were serum starved for 24 h. At 22 h of serum starvation, the cells were treated with auraptene at 1 – 50 μM auraptene in DMSO (0.1%, v/v). The control cells received vehicle only (DMSO, 0.1% v/v). At 24 h of serum starvation, the cells were treated with IGF-1(10 ng/mL). After 24 hrs of IGF-1 treatment, the cells were treated with MTS [3-(4,5-dimethylthiazol-2-yl)-5-(3-carboxy methoxy phenyl)-2-(4-sulfophenyl)-2H-tetrazolium], for 2 h and the absorbance was measured at 490 nm.
Figure 2 Effects of auraptene on human breast carcinoma cells. (A) Effects of auraptene on MDA-MB-231 cell proliferation. Cells were serum starved for 5 h and then treated with 1–50 μM auraptene in 0.01% DMSO. Cell proliferation was assessed using the MTT reagent. Figures represent % vehicle control (means ± S.E.) # Replicates = 2 plates at 6 wells each for the treatment groups and 12 wells for the control group (* statistically different from control group, p < 0.05, One-way ANOVA, Tukey test). (B) Effects of auraptene on MCF-7 cell proliferation. Cells were serum starved for 24 h. […] Cell proliferation was assessed using the MTS reagent. […]

[1] = Tissue extraction and HPLC-fluorescence analysis of auraptene in rat tissues; assay type: in vivo, female Sprague-Dawley rats; settings: for average concentration in normal mammary glands: means ± S.E.
Method: The concentration of auraptene was measured in mammary glands, livers and tumors of rats. The specimens from the animals were weighed and minced on a glass plate kept on ice. The minced sample was added to 0.05 M Tris buffer, pH 7.4, containing 0.25 M sucrose in 1 ml. To 1 ml of this homogenized sample, 80 μL of 100 μM curcumin was added as internal standard followed by vortexing. The sample was then extracted twice with ethyl acetate: acetone (2:1 v/v). The combined supernatant was then dried under N2 gas, resuspended in 1 mL 70% methanol/H2O and analyzed by HPLC (Shimadzu, SIL-10AF) with UV (254 nm) and fluorescence detection (Shimadzu, RF-535) at excitation and emission wavelengths of 329 nm and 390 nm respectively. The flow rate in HPLC was 1 ml/min with C18*5μ column. The mobile phase started with 80% methanol in water up to 20 minutes and was increased in a linear gradient up to 100% methanol over the next 5 minutes. Under these conditions, auraptene eluted at 14 minutes and curcumin at 6 minutes. The ratio of area under the curve for auraptene at different concentrations to that of curcumin was plotted to make the standard curve. The concentration of auraptene in the specimens was calculated from the standard curve. For the calculation of concentration, 1 gm of the tissue was assumed to occupy a volume of 1 ml.
Figure 6 Concentrations of auraptene in rat tissues from the tumor study. The rat mammary glands, tumors and livers were weighed and homogenized. To the homogenate 80 μL of 100 μM curcumin was added as internal standard and extracted twice with ethyl acetate: acetone mixture (2:1 v/v). The extract was dried and resuspended in 1 mL 70% methanol/H2O and analyzed by HPLC (Shimadzu, SIL-10AF) with UV (254 nm) and fluorescence detection (Shimadzu, RF-535) at excitation and emission wavelengths of 329 nm and 390 nm respectively.

c-Myc = tested on: c-Myc; design: method as in PMID 16979634; settings: 25 μM auraptene, HT-29 human colorectal cancer cells; cited from earlier work
[2] = Stability of auraptene in diet by HPLC; assay type: physicochemical; settings: animal room conditions, HPLC analysis, data not shown
cyclin D1 = test: Western blot of cyclin D1 expression in rat mammary tumors; assay type: in vivo, female Sprague-Dawley rats; settings: 500 ppm in diet, compared to MNU only group, n = 10 per group
Method: The mammary tumors from the female Sprague-Dawley rats were analyzed for cyclin D1 expression and eukaryotic Initiation Factor 4E (eIF4E) as previously described. Briefly, samples were first homogenized in RIPA buffer [50 mM Tris-HCL (pH 7.4), 1% Triton-X, 150 mM NaCl, 1 mM EDTA, 1 mM sodium orthovanadate, 1 mM PMSF, 1 μg of aprotinin, leupeptin and pepstatin and 1 mM sodium fluoride]. The proteins were measured by Bradford method (using BSA as a standard), followed by the addition of 2 × sample buffer [0.125 M Tris, 10% (w/v) SDS, 40% (v/v) glycerol, 0.04% (w/v) bromophenol blue, and 80 mM dithiothreitol]. Samples were heated to 95°C for 5 min, and 10 μg of protein/well was loaded and resolved. The proteins were then transferred and detected for cyclin D1 expression as mentioned above. Lysate from MCF-7 cells treated with IGF-1 was used as positive control for cyclin D1.
Figure 5 Effects of dietary auraptene on cyclin D1 expression in rat mammary tumors. From the same tumor study, rat mammary tumors were homogenized and the lysates were used for western blot to analyze the cyclin D1 expression. […] (+ statistically different from MNU group, * statistically different from Auraptene 200 group, p < 0.05, One-way ANOVA, Tukey test).

## CC(C)=CCC/C(C)=C/COc1ccc2ccc(=O)oc2c1 [auraptene]
MCF-7 cells; 20 μM auraptene
  suppression of MCF-7 cell proliferation: 26%
MCF-7 cells; 50 μM auraptene
  suppression of MCF-7 cell proliferation: 49%
[1]; 200 ppm in diet
  average concentration in normal mammary glands: 1.4 ± 0.5 µM
[1]; 500 ppm in diet, mean, n = 2
  average concentration in livers: 0.87 µM
[1]; 500 ppm in diet
  average concentration in normal mammary glands: 1.8 ± 0.3 µM
c-Myc
  expression of c-Myc: suppressed the expression of c-Myc
[2]
  stability in diet: not degraded
Cyclin D1
  reduction of cyclin D1 expression in rat mammary tumors: 49%
